Assay results: the supplement of paper PMC11619387
Values after ≈ are worked out from the molar mass of the structure shown. ± gives the standard deviation of the averaged measurements.

What was measured:
[1] = tested on: Pseudomonas aeruginosa PAO1-Xen41; assay: EC50 of growth/kill rate concentration-effect curve
Description: (§1)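 Time-kill assays of bioluminescent P. aeruginosa PAO1-Xen41 (start ~5e6 CFU/mL) in 96-well plates at 37 °C, 150 rpm. Luminescence was read hourly for 20 h in cation-adjusted Mueller-Hinton broth, either non-conditioned (MH broth with or without supplements) or conditioned by one of 13 CF-associated species, then filter-sterilised and nutrient-replenished. Growth/kill rates came from log-linear regression of the exponential phase at 9-10 antibiotic concentrations, and Hill (Emax) models were fitted with drc for each replicate.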

[2] = tested on: Pseudomonas aeruginosa PAO1-Xen41; assay: Hill coefficient of concentration-effect curve (unitless); higher = steeper concentration-effect curve
Description: as §1

[3] = tested on: Pseudomonas aeruginosa PAO1-Xen41; assay: Emax, maximal drug effect on net growth rate (fitted lower asymptote) (per hour (slope of log luminescence)); higher = weaker maximal killing (less negative)
Description: as §1

[4] = medium (conditioned by secondary species or non-conditioned control): A. baumannii
[5] = medium (conditioned by secondary species or non-conditioned control): A. fumigatus
[6] = medium (conditioned by secondary species or non-conditioned control): A. xylosoxidans
[7] = medium (conditioned by secondary species or non-conditioned control): B. cepacia
[8] = medium (conditioned by secondary species or non-conditioned control): C. albicans
[9] = medium (conditioned by secondary species or non-conditioned control): H. influenzae
[10] = medium (conditioned by secondary species or non-conditioned control): M. abcessus
[11] = medium (conditioned by secondary species or non-conditioned control): M. avium
[12] = medium (conditioned by secondary species or non-conditioned control): M. catarrhalis
[13] = medium (conditioned by secondary species or non-conditioned control): MH broth
[14] = medium (conditioned by secondary species or non-conditioned control): MH broth + ADC
[15] = medium (conditioned by secondary species or non-conditioned control): MH broth + LHB + NAD
[16] = medium (conditioned by secondary species or non-conditioned control): MH broth + glucose
[17] = medium (conditioned by secondary species or non-conditioned control): R. mannitolilytica
[18] = medium (conditioned by secondary species or non-conditioned control): S. aureus
[19] = medium (conditioned by secondary species or non-conditioned control): S. maltophilia
[20] = medium (conditioned by secondary species or non-conditioned control): S. pneumoniae

## C[C@@H]1O[C@@H]1P(=O)(O)O [fosfomycin]
[1]; [4]
  EC50: 149 ± 5 µg/mL (≈ 1080 µM)
[1]; [5]
  EC50: 16.6 ± 0.41 µg/mL (≈ 120 µM)
[1]; [6]
  EC50: 201 ± 22 µg/mL (≈ 1450 µM)
[1]; [7]
  EC50: 81.7 ± 4.4 µg/mL (≈ 592 µM)
[1]; [8]
  EC50: 10.6 ± 0.21 µg/mL (≈ 77 µM)
[1]; [9]
  EC50: 72.3 ± 2.4 µg/mL (≈ 524 µM)
[1]; [10]
  EC50: 43.8 ± 4.9 µg/mL (≈ 318 µM)
[1]; [11]
  EC50: 34.4 ± 1.7 µg/mL (≈ 249 µM)
[1]; [12]
  EC50: 66.6 ± 0.91 µg/mL (≈ 483 µM)
[1]; [13]
  EC50: 22.4 ± 0.44 µg/mL (≈ 163 µM)
[1]; [14]
  EC50: 23.6 ± 1.3 µg/mL
[1]; [15]
  EC50: 47 ± 9.4 µg/mL
[1]; [16]
  EC50: 17.7 ± 1.7 µg/mL
[1]; [17]
  EC50: 65.4 ± 3.8 µg/mL (≈ 473 µM)
[1]; [18]
  EC50: 47.35 ± 0.39 µg/mL (≈ 343 µM)
[1]; [19]
  EC50: 81.9 ± 1.6 µg/mL (≈ 593 µM)
[1]; [20]
  EC50: 45.9 ± 9 µg/mL (≈ 332 µM)
[2]; [4]
  Hill coefficient: 2.21 ± 0.42
[2]; [5]
  Hill coefficient: 1.48 ± 0.082
[2]; [6]
  Hill coefficient: 2.09 ± 0.17
[2]; [7]
  Hill coefficient: 3.68 ± 0.42
[2]; [8]
  Hill coefficient: 1.72 ± 0.087
[2]; [9]
  Hill coefficient: 1.57 ± 0.096
[2]; [10]
  Hill coefficient: 2.3 ± 0.51
[2]; [11]
  Hill coefficient: 1.9 ± 0.14
[2]; [12]
  Hill coefficient: 2.47 ± 0.59
[2]; [13]
  Hill coefficient: 2.99 ± 0.21
[2]; [14]
  Hill coefficient: 2.25 ± 0.25
[2]; [15]
  Hill coefficient: 1.88 ± 0.49
[2]; [16]
  Hill coefficient: 1.47 ± 0.062
[2]; [17]
  Hill coefficient: 3.11 ± 0.87
[2]; [18]
  Hill coefficient: 3.29 ± 0.14
[2]; [19]
  Hill coefficient: 2.83 ± 0.079
[2]; [20]
  Hill coefficient: 1.54 ± 0.4
[3]; [4]
  Emax: -0.132 ± 0.0037
[3]; [5]
  Emax: -0.117 ± 0.0062
[3]; [6]
  Emax: -0.189 ± 0.029
[3]; [7]
  Emax: -0.0776 ± 0.0022
[3]; [8]
  Emax: -0.134 ± 0.0084
[3]; [9]
  Emax: -0.354 ± 0.025
[3]; [10]
  Emax: -0.177 ± 0.021
[3]; [11]
  Emax: -0.196 ± 0.007
[3]; [12]
  Emax: -0.126 ± 0.014
[3]; [13]
  Emax: -0.173 ± 0.013
[3]; [14]
  Emax: -0.194 ± 0.032
[3]; [15]
  Emax: -0.233 ± 0.044
[3]; [16]
  Emax: -0.136 ± 0.016
[3]; [17]
  Emax: -0.111 ± 0.037
[3]; [18]
  Emax: -0.122 ± 0.01
[3]; [19]
  Emax: -0.102 ± 0.008
[3]; [20]
  Emax: -0.276 ± 0.047

## CO[C@H]1/C=C/O[C@@]2(C)Oc3c(C)c(O)c4c(O)c(c(/C=N/N5CCN(C)CC5)c(O)c4c3C2=O)NC(=O)/C(C)=C\C=C\[C@H](C)[C@H](O)[C@@H](C)[C@@H](O)[C@@H](C)[C@H](OC(C)=O)[C@@H]1C [rifampicin]
[1]; [4]
  EC50: 58.4 ± 7.1 µg/mL (≈ 71 µM)
[1]; [5]
  EC50: 16.6 ± 1.4 µg/mL (≈ 20.2 µM)
[1]; [6]
  EC50: 60.8 ± 6.4 µg/mL (≈ 73.9 µM)
[1]; [7]
  EC50: 53.9 ± 5 µg/mL (≈ 65.4 µM)
[1]; [8]
  EC50: 26.5 ± 3.1 µg/mL (≈ 32.2 µM)
[1]; [9]
  EC50: 18.7 ± 3.9 µg/mL (≈ 22.7 µM)
[1]; [10]
  EC50: 43.2 ± 6 µg/mL (≈ 52.5 µM)
[1]; [11]
  EC50: 72 ± 20 µg/mL (≈ 87.5 µM)
[1]; [12]
  EC50: 58.7 ± 8.3 µg/mL (≈ 71.4 µM)
[1]; [13]
  EC50: 31.7 ± 8.1 µg/mL (≈ 38.5 µM)
[1]; [14]
  EC50: 83.3 ± 34 µg/mL
[1]; [15]
  EC50: 25.2 ± 3 µg/mL
[1]; [16]
  EC50: 26.7 ± 2.7 µg/mL
[1]; [17]
  EC50: 40.4 ± 3.4 µg/mL (≈ 49 µM)
[1]; [18]
  EC50: 43.6 ± 17 µg/mL (≈ 53 µM)
[1]; [19]
  EC50: 51.8 ± 1 µg/mL (≈ 62.9 µM)
[1]; [20]
  EC50: 20.8 ± 1.6 µg/mL (≈ 25.3 µM)
[2]; [4]
  Hill coefficient: 2.64 ± 0.59
[2]; [5]
  Hill coefficient: 1.865 ± 0.018
[2]; [6]
  Hill coefficient: 3.63 ± 0.45
[2]; [7]
  Hill coefficient: 4.03 ± 0.44
[2]; [8]
  Hill coefficient: 2.68 ± 0.74
[2]; [9]
  Hill coefficient: 5.03 ± 4.8
[2]; [10]
  Hill coefficient: 2.15 ± 0.5
[2]; [11]
  Hill coefficient: 0.999 ± 0.14
[2]; [12]
  Hill coefficient: 2.74 ± 0.12
[2]; [13]
  Hill coefficient: 2.61 ± 0.61
[2]; [14]
  Hill coefficient: 0.89 ± 0.074
[2]; [15]
  Hill coefficient: 3.8 ± 0.97
[2]; [16]
  Hill coefficient: 2.46 ± 0.46
[2]; [17]
  Hill coefficient: 5.28 ± 1.3
[2]; [18]
  Hill coefficient: 2.1 ± 0.68
[2]; [19]
  Hill coefficient: 3.3 ± 0.12
[2]; [20]
  Hill coefficient: 4.69 ± 1.2
[3]; [4]
  Emax: -0.428 ± 0.0089
[3]; [5]
  Emax: -0.427 ± 0.039
[3]; [6]
  Emax: -0.447 ± 0.0084
[3]; [7]
  Emax: -0.4437 ± 0.0044
[3]; [8]
  Emax: -0.543 ± 0.034
[3]; [9]
  Emax: -0.165 ± 0.024
[3]; [10]
  Emax: -0.468 ± 0.021
[3]; [11]
  Emax: -1.04 ± 0.058
[3]; [12]
  Emax: -0.151 ± 0.0049
[3]; [13]
  Emax: -0.425 ± 0.016
[3]; [14]
  Emax: -1.1 ± 0.11
[3]; [15]
  Emax: -0.141 ± 0.026
[3]; [16]
  Emax: -0.552 ± 0.023
[3]; [17]
  Emax: -0.4494 ± 0.0013
[3]; [18]
  Emax: -0.461 ± 0.029
[3]; [19]
  Emax: -0.437 ± 0.0072
[3]; [20]
  Emax: -0.142 ± 0.0056
